Tests used:
Format in all cases: in vivo
[1] = test system: corn of the cultivar DKB 455; experiment: Biomass of corn grains, field trial, free disease conditions (example 1.4)
Description: (§1) Corn of the cultivar DKB 390 was cultivated under customary conditions (150 kg/ha nitrogen) at Campinas (Brazil) in 2005/2006. One part of the trial was treated with pyraclostrobin (in the form of the commercially available product F500 from BASF; diluted with water to a concentration 0.5 g/l) at the growing stage 34/35 and the other part at GS 55/57 by spraying about 300 l/ha (150 g of active compound per ha). Control plants were treated at GS 35/35 and 55/57, respectively, with a formulation according to that of F500 but without the active compound pyraclostrobin (“blank formulation”). One week prior to the treatment either with the active formulation or with the blank formulation, the plants were treated with epoxiconazole in order to ensure absence of fungal stress. 55 days after the application at GS 55/57, the plants were harvested and the corn grains having a residual moisture content of 14 to 20% by weight, based on the total weight of the grains, were weighed.
The experiments were carried out according to example 1.1, however using corn of the cultivar DKB 455.

[2] = test system: Soybean of the variety Conquista; experiment: Biomass of soybean grains, field trial, disease conditions (example 2.2); settings: without epoxiconazole pre-treatment, grains 13 to 22% residual moisture
Description: (§2) Soybean of the variety Conquista was cultivated under customary conditions at Campinas (Brazil) in 2005/2006. One part of the trial was treated with pyraclostrobin (in the form of the commercially available product F500 from BASF; diluted with water to a concentration of 0.42 g/l) at the growing stage 61/62 and the other part at GS 65/67 by spraying about 350 l/ha (150 g of active compound per ha). Control plants were treated at GS 61/62 and 65/67, respectively, with a formulation according to that of F500 but without the active compound pyraclostrobin (“blank formulation”). One week prior to the treatment either with the active formulation or with the blank formulation, the plants were treated with epoxiconazole in order to ensure absence of fungal stress. 56 days after the application at GS 65/67, the plants were harvested and the soybean grains having a residual moisture content of 13 to 18% by weight, based on the total weight of the grains, were weighed.
The experiments were carried out according to example 2.1, however without the epoxiconazole pre-treatment. The residual moisture content was 13 to 22% by weight, based on the total weight of the grains.

[3] = test system: Corn of the cultivar DKB 390; experiment: Biomass of corn grains, field trial, free disease conditions, another field (example 1.3); settings: corn DKB 390, another field
Description: as §1
The experiments were carried out according to example 1.1, however using another field.

[4] = test system: Corn of the cultivar DKB 390; experiment: Biomass of corn grains, field trial, disease conditions (example 1.2); settings: corn DKB 390, 150 g of active compound per ha, without epoxiconazole pre-treatment, grains 14 to 22% residual moisture
Description: as §1
The experiments were carried out according to example 1.1, however without the epoxiconazole pre-treatment. Moreover, the concentration of pyraclostrobin in the spray liquor was 1 g/l and 150 l/ha were sprayed (150 g of active compound per ha). The residual moisture content of the grains was 14 to 22% by weight, based on the total weight of the grains.

[5] = test system: Corn of the cultivar DKB 390; experiment: Biomass of corn grains, field trial, free disease conditions (example 1.1); settings: corn DKB 390, 150 g of active compound per ha, spray, epoxiconazole pre-treatment, grains 14 to 20% residual moisture
Description: as §1

[6] = test system: Soybean of the variety Conquista; experiment: Biomass of soybean grains, field trial, free disease conditions (example 2.1); settings: spray, epoxiconazole pre-treatment, grains 13 to 18% residual moisture
Description: as §2

[7] = treated at GS 61/62, 150 g of active compound per ha
[8] = treated at GS 65/67, 150 g of active compound per ha

Q: What does the source list for pyraclostrobin?
A: Yield ([1]; corn DKB 455, treated at GS 34/35, 150 g of active compound per ha): 8.6 ton/ha; Yield ([1]; corn DKB 455, treated at GS 55/57, 150 g of active compound per ha): 9.2 ton/ha; Yield [2, 7]: 2163 kg/ha; Yield [2, 8]: 2120 kg/ha; Yield ([3]; treated at GS 34/35, 150 g of active compound per ha): 8.0 ton/ha; Yield ([3]; treated at GS 55/57, 150 g of active compound per ha): 8.3 ton/ha; Yield ([4]; treated at GS 34/35): 8.7 ton/ha; Yield ([4]; treated at GS 55/57): 8.8 ton/ha; Yield ([5]; treated at GS 34/35): 10.4 ton/ha; Yield ([5]; treated at GS 55/57): 10.6 ton/ha; Yield [6, 7]: 2254 kg/ha; Yield [6, 8]: 2209 kg/ha
